# From US20250059227A1, “ARTIFICIAL NUCLEIC ACID, METHOD FOR PRODUCING SAME, AND USE OF SAME” (RIKEN GENESIS CO., LTD., priority 2021, published 2025)
# [NMe] = code of the source, not defined here; [(B)β] = from compound B-13; [(C)Hβ] = from compound C-8; d = 2'-deoxy (DNA)
# Legend:
# [1] = test system: single-stranded DNA (5′-d(agcaaaaaacgc)-3′; SEQ ID NO: 7) (a sense strand); experiment: Melting temperature (Tm), capability of forming double strand with single-stranded DNA; type: binding; conditions: for capability of forming a double strand with single-stranded DNA versus single-stranded RNA: antisense strand as shown in SEQ ID NO: 1, modified with one base; for Tm: pH 7.2
# [2] = test system: single-stranded RNA (5′-r(agcaaaaaacgc)-3′; SEQ ID NO: 8) (a sense strand); type: binding; conditions: pH 7.2
Substance,capability of forming a double strand with single-stranded DNA versus single-stranded RNA [1],Tm [1] [°C],Tm [2] [°C]
"5′-d(gcgttxtttgct)-3′ x = (B)β-T: (B)β-T modified oligonucleotide, antisense 12-mer DNA (SEQ ID NO: 1), one x = (B)β-T unit from compound B-13 (antisense GCGTTTTTTGCT; sugars from the 5' end d5 [(B)β]1 d6, backbone not given here)",superior capability of forming a double strand together with single-stranded DNA over single-stranded RNA,,
"5′-d(gcgttxtttgct)-3′ x = (C)Hβ-T: (C)Hβ-T modified oligonucleotide, antisense 12-mer DNA (SEQ ID NO: 1), one x = (C)Hβ-T unit from compound C-8 (antisense GCGTTTTTTGCT; sugars from the 5' end d5 [(C)Hβ]1 d6, backbone not given here)",superior capability of forming a double strand together with single-stranded DNA over single-stranded RNA,,
"5′-d(gcgtxxxttgct)-3′ x = NMe-T: reference antisense 12-mer (SEQ ID NO: 3); three x = formula (9) unit, Base thymin-1-yl, R^b Me (antisense GCGTTTTTTGCT; sugars from the 5' end d4 [NMe]3 d5, backbone and methylation of C not given here)",,51,60
"5′-d(gcgxtxtxtgct)-3′ x = NMe-T: reference antisense 12-mer (SEQ ID NO: 2); three x = formula (9) unit, Base thymin-1-yl, R^b Me (antisense GCGTTTTTTGCT; sugars from the 5' end ddd[NMe]d[NMe]d[NMe]dddd, backbone and methylation of C not given here)",,52,64
